According to patent publication US20230330254A1 (Regeneron Pharmaceuticals, Inc., priority 2022, published 2023):
pEC50: −log10 of the molar value. Where a SMILES comes first, the peptide text is derived from it. [ ]: non-standard residue; d: D form. The star is where a group is joined. Bip(2'-Et,4'-O(CH2)4NH2) = CCc1cc(OCCCCN)ccc1-c1ccc(C[C@H](N)C(=O)O)cc1; Nva(5-(3,5-Me2Ph)) = Cc1cc(C)cc(CCC[C@H](N)C(=O)O)c1; Ala(1H-tetrazol-5-yl) = N[C@@H](Cc1nnn[nH]1)C(=O)O; αMePhe(2-F) = C[C@](N)(Cc1ccccc1F)C(=O)O; X3 = CC(C)(C(=O)*)c1ccn[nH]1; X1 = O=C(CCCCCc1cnc[nH]1)*

Key:
[1] = Plasma stability of payloads and linker-payloads, human plasma; format: in vitro ADME; details: 2 μM, 37° C., read-out: Human plasma stability assay T½ (converted)
In short: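 Pooled plasma, pH adjusted to 7.4±0.1 where needed, spiked to 2 μM compound (duplicate) and incubated at 37 °C. At each time point, protein was precipitated with ACN/MeOH stop solution containing internal standards; remaining compound quantified in supernatant by LC-MS/MS.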

[2] = Plasma stability of payloads and linker-payloads, mouse plasma; format: in vitro ADME; details: for half-life at 2 µM: mouse, pooled plasma
Procedure: The plasma stability of payloads and linker payloads of the disclosure were measured. For the assay, pooled frozen plasma (human, mouse or monkey) was thawed in cold water or a 37° C. water bath prior to experiment. Plasma was centrifuged at 4000 rpm for 5 min if any clots were observed, they were subsequently removed. If required, the pH was adjusted to 7.4±0.1. For the preparation of compounds and positive controls, a 1 mM intermediate solution was prepared by diluting 10 μL of their stock solution with 90 μL DMSO; a 1 mM intermediate solution of the positive control (Propantheline) was prepared by diluting 10 μL of its stock solution with 90 μL ultrapure water. Subsequently, 100 μM dosing solution for each compound was prepared by diluting 20 μL of the intermediate solution (1 mM) with 180 μL 45% MeOH/H2O. 98 μL of plasma was spiked with 2 μL of dosing solution (100 μM) to achieve the final concentration of 2 μM in duplicate. Samples were then incubated at 37° C. in a water bath. […] At each time point, 400 μL of stop solution (200 ng/mL tolbutamide plus 200 ng/mL labetalol in 50% ACN/MeOH) was added to precipitate protein and mixed thoroughly. Sample plates were then centrifuged at 4,000 rpm for 10 min. An aliquot of supernatant (50 μL) was transferred from each well and mixed with 100 μL ultrapure water. The samples were then shaken at 800 rpm for approximately 10 min before submitting for LC-MS/MS analysis.

human GLP1R [3] = target: T1, human GLP1R (Homo sapiens, UniProt P43220); assay: Human GLP1R cAMP accumulation assay; format: cell-based; set-up: HEK293 cells over-expressing full length human GLP-1R were utilized; expressed in transfected cells; host or cells: HEK293 (HEK293/hGLP1R)
T1 sequence (P43220 24-463): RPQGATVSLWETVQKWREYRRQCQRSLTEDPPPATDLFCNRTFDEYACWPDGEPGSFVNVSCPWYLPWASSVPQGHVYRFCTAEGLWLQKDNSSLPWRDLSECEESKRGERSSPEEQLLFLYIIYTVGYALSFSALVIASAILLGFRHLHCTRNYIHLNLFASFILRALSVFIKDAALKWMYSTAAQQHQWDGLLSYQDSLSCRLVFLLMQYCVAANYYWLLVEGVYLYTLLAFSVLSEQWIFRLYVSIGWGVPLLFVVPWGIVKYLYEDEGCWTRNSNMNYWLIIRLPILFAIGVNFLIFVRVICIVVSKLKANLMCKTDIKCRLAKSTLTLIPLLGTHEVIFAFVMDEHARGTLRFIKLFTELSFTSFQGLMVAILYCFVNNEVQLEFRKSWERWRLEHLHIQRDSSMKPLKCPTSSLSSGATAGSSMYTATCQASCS
In short: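 cAMP accumulation measured after 30 min at 23° C, with 500 μM IBMX in HEPES-buffered HBSS plus 0.1% BSA, in HEK293 cells expressing full-length hGLP-1R. Levels read by D2-cAMP/antibody immunoassay via standard curve, scaled between low and high controls. EC50 fitted four-parameter over a 10-point curve.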

HEK293/CRE-Luc cells [4] = assay: Luciferase reporter assay, HEK293/CRE-Luc cells without hGLP1R (Example 11); format: cell-based, human; details: Table 11; Experiment A; no hGLP1R expression
Source text: (§1) To test the activity of GLP1R agonist payloads, GLP1R agonist linker-payloads (LPs), and anti-GLP1R antibody tethered drug conjugates (ATDCs) of the disclosure, a cell-based cAMP responsive luciferase reporter assay was developed. To generate the assay cell line, the firefly luciferase gene was placed under the control of a cAMP response element (CRE) located upstream of a minimal promoter and transfected into HEK293 cells and referred to herein as HEK293/CRE-Luc cells.
(§2) Three-fold serial dilutions of free payloads or LPs were prepared in 100% DMSO, transferred to fresh assay media, and added to the cells at a final constant DMSO concentration of 0.2%. The last well in the plate served as a blank control containing only the assay media and 0.2% DMSO (untreated well) and was plotted as a continuation of the 3-fold serial dilution. Four to six hours later, luciferase activity was determined after the addition of One-Glo™ reagent (Promega, Cat #E6130) to each well. Relative light units (RLUs) were measured on an Envision luminometer (PerkinElmer) and EC50 values were determined using a four-parameter logistic equation over a 12-point dose response curve (GraphPad Prism). The signal to noise (S/N) was determined by taking the ratio of the highest RLU on the dose response curve to the RLU in the untreated wells.

HEK293/CRE-Luc cells [5] = assay: Luciferase reporter assay, HEK293/CRE-Luc cells without GLP1R (Example 17); format: cell-based, human; details: HEK293/CRE-Luc cells without hGLP1R, payloads and linker-payloads; for pEC50: read-out: EC50
In short: (§3)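 HEK293 cells carrying a CRE-driven firefly luciferase reporter were exposed to 3-fold serial dilutions of payloads or linker-payloads (12 points, 0.2% DMSO final) for 4–6 h, then luminescence was read. EC50 came from a four-parameter logistic fit; S/N is top RLU over untreated wells, and relative potency and S/N are referenced to M2361.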

[6] = Plasma stability of payloads (t½)
human GLP1R [7] = target: T1, human GLP1R; assay: Luciferase reporter assay, HEK293/CRE-Luc/hGLP1R cells (Example 11); format: cell-based; set-up: engineered to express full-length human GLP1R, cynomolgus GLP1R; expressed in transfected cells; host or cells: HEK293/CRE-Luc; details: Table 11; Experiment A
Source text: as §1, §2
GLP1R agonist linker payloads were conjugated to anti-hGLP1R antibodies via N-terminal heavy or light chain Q tags. Several resulting anti-GLP1R antibody tethered drug conjugates (ATDCs) were tested for activity in the HEK293/CRE-Luc/hGLP1R reporter assay as described above for the free GLP1R payload and linker-payload agonists.

human GLP1R [8] = target: T1, human GLP1R; assay: Luciferase reporter assay, HEK293/CRE-Luc/hGLP1R (Example 17); format: cell-based; set-up: engineered to express full-length human GLP1R, cynomolgus GLP1R; expressed in transfected cells; host or cells: HEK293/CRE-Luc; details: HEK293/CRE-Luc/hGLP1R; for S/N: highest RLU / RLU of untreated wells; for pEC50: payloads and linker-payloads, experiments A-E, M2361 repeated in each, read-out: EC50; for Relative Potency (% M2361 EC50) / Relative Signal:Noise (% M2361): relative to M2361 of the same experiment
In short: as §3

[9] = Liver microsome stability; format: in vitro ADME, human; details: human, microsomes, Table 7
Procedure: To assess the in vitro ADME properties of the LP, microsomal stability assay was performed to determine intrinsic clearance, and plasma protein binding assay was performed to understand the distribution potential.

[10] = Plasma protein binding (equilibrium dialysis); format: in vitro ADME, human; details: Human Plasma; 4 hours dialysis
Procedure: The pH value of the resulting plasma was checked
(<http://www.htdialysis.com/>).
DMSO working solutions were prepared at 400 μM. […] These samples were transferred into new 96-well plates.

[11] = plasma, pH 7.4, tested time A (1 day per footnote)
[12] = HEK293/hGLP1R cells, Table 4, read-out: cAMP EC50

SMILES | half-life at 2 µM [1, 11] [h] | pEC50 (HEK293/CRE-Luc cells [4]) | HEK293/CRE-LUC S/N (HEK293/CRE-Luc cells [4]) | S/N (HEK293/CRE-Luc cells [5]) | pEC50 (HEK293/CRE-Luc cells [5]) | Plasma stability t½ [6] [h] | pEC50 (human GLP1R [7]) | HEK293/CRE-LUC/hGLP1R Relative Potency (% P8 EC50) (human GLP1R [7]) [%] | HEK293/CRE-LUC/hGLP1R S/N (human GLP1R [7]) | S/N (human GLP1R [8]) | pEC50 (human GLP1R [8]) | Relative Potency (% M2361 EC50) (human GLP1R [8]) [%] | Relative Signal:Noise (% M2361) (human GLP1R [8]) [%] | pEC50 (human GLP1R [3]; [12]) | also measured
CCc1cc(OC)ccc1-c1ccc(C[C@H](NC(=O)[C@H](CC(=O)O)NC(=O)[C@H](CO)NC(=O)[C@@H](NC(=O)[C@](C)(Cc2ccccc2F)NC(=O)[C@@H](NC(=O)CNC(=O)[C@H](Cc2nn[nH]n2)NC(=O)C(C)(C)C(=O)NCCc2cnc[nH]2)[C@@H](C)O)[C@@H](C)O)C(=O)N[C@@H](CCCc2ccc(OCCCCNC(=O)CCOCCOCCOCCOCCOCCOCCOCCOCCOCCOCCOCCOCCOCCOCCOCCOCCOCCOCCOCCOCCOCCOCCOCCOCCNC(=O)CCC(=O)N3Cc4ccccc4-c4c(nnn4CC4OC5OC6C(CO)OC(OC7C(CO)OC(OC8C(CO)OC(OC9C(CO)OC(OC%10C(CO)OC(OC4C(O)C5O)C(O)C%10O)C(O)C9O)C(O)C8O)C(O)C7O)C(O)C6O)-c4ccccc43)cc2)C(N)=O)cc1 (stereo partly shown) [LP23, cyclo-dex-trin-triazole-DIBAC-suc-PEG24-P24] |  |  |  |  |  |  |  |  |  |  |  |  |  |  | half-life at 2 µM ([1]; pooled plasma, pH 7.4, tested time B (2 hrs per footnote)): > 4.8 h; plasma stability T½ ([2]; Mouse, assay time 2 hr, Table 5B): >4 h; half-life at 2 µM ([2]; pH 7.4, Mouse, assay time 2 hr, Table 5B, read-out: plasma stability T½): > 4 h; half-life at 2 µM ([2]; pH 7.4, Table 5A, mouse plasma, tested time B (2 hrs), read-out: plasma stability T½ (hr), mouse): > 4.8 h; pEC50 (human GLP1R [3]): 9.27
CCc1cc(OCCCCN)ccc1-c1ccc(C[C@H](NC(=O)[C@H](CC(=O)O)NC(=O)[C@H](CO)NC(=O)[C@@H](NC(=O)[C@](C)(Cc2ccccc2F)NC(=O)[C@@H](NC(=O)CNC(=O)[C@H](Cc2nn[nH]n2)NC(=O)C(C)(C)c2ccn[nH]2)[C@@H](C)O)[C@@H](C)O)C(=O)N[C@@H](CCCc2cc(C)cc(C)c2)C(N)=O)cc1 [P6] (X3-[Ala(1H-tetrazol-5-yl)]GT[αMePhe(2-F)]TSD[Bip(2'-Et,4'-O(CH2)4NH2)][Nva(5-(3,5-Me2Ph))]-NH2) | > 57.8 | < 6.70 | 1.0 | 1.0 | < 6.70 | >57.8 | 9.22 | 0.9 | 60.7 | 60.7 | 9.22 | 0.9 | 92.3 | 9.07 | 
CCc1cc(OCCCCN)ccc1-c1ccc(C[C@H](NC(=O)[C@H](CC(=O)O)NC(=O)[C@H](CO)NC(=O)[C@@H](NC(=O)[C@](C)(Cc2ccccc2F)NC(=O)[C@@H](NC(=O)CNC(=O)[C@H](Cc2nn[nH]n2)NC(=O)CCCCCc2cnc[nH]2)[C@@H](C)O)[C@@H](C)O)C(=O)N[C@@H](CCCc2cc(C)cc(C)c2)C(N)=O)cc1 [P11] (X1-[Ala(1H-tetrazol-5-yl)]GT[αMePhe(2-F)]TSD[Bip(2'-Et,4'-O(CH2)4NH2)][Nva(5-(3,5-Me2Ph))]-NH2) | > 57.8 | < 6.70 | 1.1 | 1.1 | < 6.70 | >57.8 | 9.16 | 0.8 | 54.8 | 54.8 | 9.16 | 0.8 | 83.4 | 8.99 | 
CCc1cc(OCCCCN)ccc1-c1ccc(C[C@H](NC(=O)[C@H](CC(=O)O)NC(=O)[C@H](CO)NC(=O)[C@@H](NC(=O)[C@](C)(Cc2ccccc2F)NC(=O)[C@@H](NC(=O)CNC(=O)[C@H](Cc2nn[nH]n2)NC(=O)[C@H](C)NC(=O)[C@H](Cc2c[nH]cn2)NC(=O)[C@@H](N)CCC(N)=O)[C@@H](C)O)[C@@H](C)O)C(=O)N[C@@H](CCCc2cc(C)cc(C)c2)C(N)=O)cc1 [P13] (H-QHA[Ala(1H-tetrazol-5-yl)]GT[αMePhe(2-F)]TSD[Bip(2'-Et,4'-O(CH2)4NH2)][Nva(5-(3,5-Me2Ph))]-NH2) | 16.9 | < 6.70 | 1.2 | 1.2 | < 6.70 | 16.9 | 9.45 | 1.5 | 69.5 | 69.5 | 9.45 | 1.5 | 105.6 | 9.04 | 
CCc1cc(OCCCCN)ccc1-c1ccc(C[C@H](NC(=O)[C@H](CC(=O)O)NC(=O)[C@H](CO)NC(=O)[C@@H](NC(=O)[C@](C)(Cc2ccccc2F)NC(=O)[C@@H](NC(=O)CNC(=O)[C@H](CCC(N)=O)NC(=O)C(C)(C)C(=O)NCCc2cnc[nH]2)[C@@H](C)O)[C@@H](C)O)C(=O)N[C@@H](CCCc2cc(C)cc(C)c2)C(N)=O)cc1 [P21] |  | < 6.70 | 1.3 | 1.3 | < 6.70 | >57.8 | 9.13 | 0.7 | 58.8 | 58.8 | 9.13 | 0.7 | 89.5 | 9.37 | half-life at 2 µM ([1]; plasma, pH 7.4, tested time C (3 days)): > 173 h
C[C@]12CC[C@H]3[C@@H](CCC4=CC(=O)CC[C@@]43C)[C@@H]1CC[C@@H]2O [Testosterone] |  |  |  |  |  |  |  |  |  |  |  |  |  |  | CLint scaled ([9]; read-out: CLint(liver)): 77.2 mL/min/kg; microsomal CLint ([9]; read-out: CLint(mic)): 85.7 µL/min/mg
CC(=O)CC(c1ccccc1)c1c(O)c2ccccc2oc1=O (stereo not shown) [Warfarin] |  |  |  |  |  |  |  |  |  |  |  |  |  |  | recovery at 4 h, 2 µM [10]: 98.3%
